Measurements: patent US7732596B2, “Fused heterocycle derivative, medicinal composition containing the same, and medicinal use thereof” (Kissei Pharmaceutical Co., Ltd., priority 2004, dated 2010)

Key:
human SGLT1 = target: T1, human SGLT1 (Homo sapiens, UniProt P13866); assay: Assay for inhibitory effects on human SGLT1 activity (uptake of methyl-α-D-glucopyranoside in CS1-5-11D cells); format: cell-based; conditions: CHO-K1 cells stably expressing human SGLT1 (CS1-5-11D), 1 mM 14C-α-MG uptake, 37° C., 1 hour
T1 construct: expressed in transfected cells
T1 sequence (P13866 1-664): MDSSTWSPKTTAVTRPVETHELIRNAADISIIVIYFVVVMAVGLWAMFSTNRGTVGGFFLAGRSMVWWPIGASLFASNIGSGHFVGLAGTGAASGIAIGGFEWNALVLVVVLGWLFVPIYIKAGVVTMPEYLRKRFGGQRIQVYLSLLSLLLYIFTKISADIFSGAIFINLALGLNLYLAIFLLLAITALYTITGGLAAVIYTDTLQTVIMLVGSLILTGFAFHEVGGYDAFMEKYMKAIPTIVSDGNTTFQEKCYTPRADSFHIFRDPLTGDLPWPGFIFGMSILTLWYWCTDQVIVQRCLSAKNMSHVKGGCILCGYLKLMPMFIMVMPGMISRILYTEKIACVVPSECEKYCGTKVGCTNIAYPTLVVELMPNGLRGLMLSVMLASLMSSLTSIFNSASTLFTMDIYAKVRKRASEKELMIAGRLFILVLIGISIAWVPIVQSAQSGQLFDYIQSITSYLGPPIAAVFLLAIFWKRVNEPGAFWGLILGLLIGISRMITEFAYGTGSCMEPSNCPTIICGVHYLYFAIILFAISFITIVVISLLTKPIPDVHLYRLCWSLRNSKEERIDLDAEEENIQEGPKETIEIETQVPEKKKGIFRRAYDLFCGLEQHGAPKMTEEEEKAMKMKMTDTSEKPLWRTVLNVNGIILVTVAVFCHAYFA
Description: Assay for Inhibitory Effects on Human SGLT1 Activity
1) Cloning and Construction of the Vector Expressing Human SGLT1
The cDNA library was prepared for PCR amplification by reverse transcription from total RNA deprived from human small intestine (Ori gene) using oligo-dT as a primer. Using this cDNA library as a template, the DNA fragment coding 1 to 2005 bp of human SGLT1 (ACCESSION: M24847), which was reported by Hediger et al., was amplified by PCR method and inserted into the multi-cloning site of pcDNA3.1 (−) (Invitrogen). The DNA sequence inserted was perfectly matched to the previously reported sequence.
2) Establishment of Cell Line Stably Expressing Human SGLT1
The expression vector of human SGLT1 was digested by Sca I into a linear DNA. The linear DNA was transfected into CHO-K1 cells by means of lipofection (Effectene Transfection Reagent: QIAGEN). Neomycin resistant cell lines were selected by culture in the medium containing G418 (1 mg/mL, LIFE TECHNOLOGIES), and then the activity against the uptake of methyl-α-D-glucopyranoside was measured by the method described below. […] CS1-5-11D cells were cultured in the presence of G418 at 200 μg/mL. […]
CS1-5-11D cells were seeded into a 96-well culture plate at a density of 3×10^4 cells/well and cultured for 2 days, and were used in the uptake assay. […] Radioactivity was measured by means of micro-scintillation counter TopCount (Packard). […]

human SGLT2 = target: T2, human SGLT2 (Homo sapiens, UniProt P31639); assay: Assay for inhibitory effects on human SGLT2 activity (uptake of methyl-α-D-glucopyranoside in CS2-5E cells); format: cell-based; conditions: CHO-K1 cells stably expressing human SGLT2 (CS2-5E), 1 mM 14C-α-MG uptake, 37° C., 1 hour
T2 construct: expressed in transfected cells
T2 sequence (P31639 1-672): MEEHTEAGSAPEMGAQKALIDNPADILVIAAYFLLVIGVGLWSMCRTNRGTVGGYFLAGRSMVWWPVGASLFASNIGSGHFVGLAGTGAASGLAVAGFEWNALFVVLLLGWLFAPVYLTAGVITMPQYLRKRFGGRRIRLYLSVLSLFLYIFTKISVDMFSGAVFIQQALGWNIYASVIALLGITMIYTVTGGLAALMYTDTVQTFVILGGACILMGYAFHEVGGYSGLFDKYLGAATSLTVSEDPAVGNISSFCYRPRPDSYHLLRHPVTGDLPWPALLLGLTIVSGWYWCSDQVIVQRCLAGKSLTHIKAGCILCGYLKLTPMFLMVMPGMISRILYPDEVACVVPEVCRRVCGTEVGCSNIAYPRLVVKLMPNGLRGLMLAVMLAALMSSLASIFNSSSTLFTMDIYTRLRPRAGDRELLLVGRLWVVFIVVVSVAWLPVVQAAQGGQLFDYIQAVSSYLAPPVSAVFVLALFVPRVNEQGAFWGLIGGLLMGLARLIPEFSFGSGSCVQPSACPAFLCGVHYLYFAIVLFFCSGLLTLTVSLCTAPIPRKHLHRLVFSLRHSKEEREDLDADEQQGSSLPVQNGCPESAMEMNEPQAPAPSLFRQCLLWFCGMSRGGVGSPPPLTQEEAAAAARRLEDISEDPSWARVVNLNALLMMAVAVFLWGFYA
Description: Assay for Inhibitory Effects on Human SGLT2 Activity 1) Cloning and Construction of the Vector Expressing Human SGLT2 The cDNA library was prepared for PCR amplification by reverse transcription from total RNA deprived from human kidney (Ori gene) using oligo-dT as a primer. Using this cDNA library as a template, the DNA fragment coding 2 to 2039 bp of human SGLT2 (ACCESSION: M95549, M95299), which was reported by R. G. Wells et al., was amplified by PCR method and inserted into the multi-cloning site of pcDNA3.1 (−) (Invitrogen). The DNA sequence inserted was perfectly matched to the previously reported sequence. 2) Establishment of Cell Line Stably Expressing Human SGLT2 The expression vector of human SGLT2 was digested by Sca I into a linear DNA. The linear DNA was transfected into CHO-K1 cells by means of lipofection (Effectene Transfection Reagent: QIAGEN). Neomycin resistant cell lines were selected by culture in the medium containing G418 (1 mg/mL, LIFE TECHNOLOGIES), and then the activity against the uptake of methyl-α-D-glucopyranoside was measured by the method described below. […] CS2-5E cells were cultured in the presence of G418 at 200 μg/mL. 3) Measurement of the Inhibitory Activity Against the Uptake of Methyl-α-D-glucopyranoside (α-MG) CS2-5E cells were seeded into a 96-well culture plate at a density of 3×10^4 cells/well and cultured for 2 days, and were used in the uptake assay. A mixture of non-labeled (Sigma) and ^14C-labeled α-MG (Amersham Pharmacia Biotech) was added to the uptake buffer (pH 7.4; containing 140 mM sodium chloride, 2 mM potassium chloride, 1 mM calcium chloride, 1 mM magnesium chloride, […] and 5 mM tris(hydroxymethyl)aminomethane) at the final concentration of 1 mM. […] Radioactivity was measured by means of micro-scintillation counter TopCount (Packard). One hundred % was set to the difference between the uptake in the control group and the basal uptake, and the uptake of methyl α-D-glucopyranoside at each drug concentration were calculated. […]

Row | IC50 (human SGLT1) | IC50 (human SGLT2) | Compound
1 | 220 nM | 58 nM | OC[C@H]1O[C@@H](c2cc3c(CCc4ccccc4)cccc3s2)[C@H](O)[C@@H](O)[C@@H]1O [Example 1, 2-(β-D-Glucopyranosyl)-4-(2-phenylethyl)benzo[b]thiophene]
2 | – | 130 nM | OC[C@H]1O[C@@H](c2cc3cccc(CCc4ccccc4)c3s2)[C@H](O)[C@@H](O)[C@@H]1O [Example 2, 2-(β-D-Glucopyranosyl)-7-(2-phenylethyl)benzo[b]thiophene]
3 | – | 2 nM | Cc1ccc(Cc2cccc3cc([C@@H]4O[C@H](CO)[C@@H](O)[C@H](O)[C@H]4O)sc23)cc1 [Example 3, 2-(β-D-Glucopyranosyl)-7-(4-methylbenzyl)benzo[b]thiophene]
